Here are results for 1 compound from US20250213533A1 (GH RESEARCH IRELAND LIMITED, priority 2022, published 2025).

Each structure is given as a SMILES string.

Data set [1] has as its system Salmonella typhimurium (TA98, TA100, TA1535 and TA1537). In words: Bacterial mutation test, histidine-requiring strains. Format: cell-based. The following applies: up to 5000 μg/plate, absence and presence of rat liver S-9. The method, then:
These conditions included treatments at concentrations up to 5000 μg/plate (the maximum recommended concentration according to current regulatory guidelines), in the absence and in the presence of a rat liver metabolic activation system (S-9).

Data set [2] can be described thus: Pharmacokinetics of 5-MeO-DMT and bufotenine after inhalation of 5-MeO-DMT in subjects. Format: in vivo, human.

On to `COc1ccc2[nH]cc(CCN(C)C)c2c1` [5-MeO-DMT], for which the induction of mutation result in data set [1] was “did not induce mutation”. Moreover, the detectability in plasma result in data set [2] (3 hours after inhalation, 6, 12, 18 mg) is “no longer detectable”. Also, the absorption and distribution result in data set [2] (inhaled) was “rapid absorption and distribution”. In data set [2] (uptitration, inhaled), the “pharmacokinetic measurements with uptitration dosing schemes compared with single doses” value is on record as “Substantially similar results”.
